Experimental findings from patent EP4685153A1 (priority 2023, dated 2024) are described below.

Data set [1] has as its system T20-resistant mutant strains (HIV-1 strain NL4-3). The settings on record: T20-resistant mutant strains ( strain NL4-3, 48 h).
Data set [2] relates to HIV-1 strain JRFL pseudovirus. The settings on record: for IC50: strain JRFL pseudovirus.
Data set [3] is described as follows: Circular dichroism of lipopeptide alone. In kind it is physicochemical. The settings on record: CD, 10 µM in PBS pH 7.2. (In general: Circular dichroism is the unequal absorption of left and right circularly polarised light.)
In data set [4] the test system is HIV-1 strain NL4-3 pseudovirus. The settings on record: for IC50: strain NL4-3 pseudovirus.
In a further data set the target is N44 (Human immunodeficiency virus type 1 group M subtype B, UniProt P04578). Description: Circular dichroism of lipopeptide complex with target sequence N44. The settings on record: CD; for Tm value of the mixture with N44: [θ]222, 20-98 °C at 2 °C/min; for α-helix content of the mixture with N44: lipopeptide and N44 each 10 µM in PBS pH 7.2.
Chain of N44 (P04578 538-581): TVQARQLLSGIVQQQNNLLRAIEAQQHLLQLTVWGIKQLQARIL
For data set [5], the system named is HIV-1 strain SG3.1 living virus. The settings on record: for IC50: strain SG3.1 living virus.
The mark [6] stands for this setting: LP-124 versus LP-122, LP-125 versus LP-123.

Residues, ends and D or L forms follow the SMILES beside them. *: point of attachment. Succinyl(4-O-cholesteryl) = CC(C)CCC[C@@H](C)[C@H]1CC[C@H]2[C@@H]3CC=C4C[C@@H](OC(=O)CCC(=O)*)CC[C@]4(C)[C@H]3CC[C@]12C Some results are limits rather than exact numbers.

Usually IC50 stands for the concentration needed to halve the response being measured. Lower therefore signals greater potency. In data set [1], `CC[C@H](C)[C@H](NC(=O)[C@H](CCCCN)NC(=O)[C@H](CCC(N)=O)NC(=O)[C@H](CCC(=O)O)NC(=O)[C@H](Cc1ccc(O)cc1)NC(C)=O)C(=O)N[C@@H](CCC(=O)O)C(=O)N[C@@H](CCC(=O)O)C(=O)N[C@@H](CC(C)C)C(=O)N[C@@H](CC(C)C)C(=O)N[C@@H](CCCCN)C(=O)N[C@@H](CCCCN)C(=O)N[C@@H](C)C(=O)N[C@@H](CCC(=O)O)C(=O)N[C@@H](CCC(=O)O)C(=O)N[C@@H](CCC(N)=O)C(=O)N[C@@H](CCC(N)=O)C(=O)N[C@@H](CCCCN)C(=O)N[C@@H](CCCCN)C(=O)N[C@@H](CC(N)=O)C(=O)N[C@@H](CCC(=O)O)C(=O)N[C@@H](CCC(=O)O)C(=O)N[C@@H](CC(C)C)C(=O)N[C@@H](CCCCN)C(=O)N[C@@H](CCCCN)C(=O)N[C@@H](CC(C)C)C(=O)N[C@@H](CCC(=O)O)C(=O)N[C@@H](CCCCNC(=O)CCC(=O)O[C@H]1CC[C@@]2(C)C(=CC[C@H]3[C@@H]4CC[C@H]([C@H](C)CCCC(C)C)[C@@]4(C)CC[C@@H]32)C1)C(N)=O` [LP-98, reference compound] (Ac-YEQKIEELLKKAEEQQKKNEELKKLEK(Succinyl(4-O-cholesteryl))-NH2) displayed an IC50 of 2660 pM.

For `CC[C@H](C)[C@H](NC(=O)[C@H](CCCCN)NC(=O)[C@H](CCCCN)NC(=O)[C@H](CCC(=O)O)NC(=O)[C@H](Cc1c[nH]c2ccccc12)NC(=O)[C@H](CCC(=O)O)NC(=O)[C@H](CCC(=O)O)NC(=O)[C@H](Cc1c[nH]c2ccccc12)NC(=O)[C@@H](NC(=O)[C@H](CCSC)NC(=O)[C@H](CCC(=O)O)NC(C)=O)[C@@H](C)O)C(=O)N[C@@H](CCC(=O)O)C(=O)N[C@@H](CCC(=O)O)C(=O)N[C@@H](CC(C)C)C(=O)N[C@@H](CCC(=O)O)C(=O)N[C@@H](CCCCN)C(=O)N[C@@H](CCCCN)C(=O)N[C@H](C(=O)N[C@@H](CCC(=O)O)C(=O)N[C@@H](CCC(=O)O)C(=O)N[C@@H](CC(C)C)C(=O)N[C@@H](CC(C)C)C(=O)N[C@@H](CCCCN)C(=O)N[C@@H](CCCCN)C(=O)N[C@@H](C)C(=O)N[C@@H](CCC(=O)O)C(=O)N[C@@H](CCC(=O)O)C(=O)N[C@@H](CCC(N)=O)C(=O)N[C@@H](CCC(N)=O)C(=O)N[C@@H](CCCCN)C(=O)N[C@@H](CCCCN)C(=O)N[C@@H](CC(N)=O)C(=O)N[C@@H](CCC(=O)O)C(=O)N[C@@H](C)C(=O)N[C@@H](C)C(=O)N[C@@H](C)C(=O)N[C@@H](CCCCN)C(=O)N[C@@H](CCCCNC(=O)CCC(=O)O[C@H]1CC[C@@]2(C)C(=CC[C@H]3[C@@H]4CC[C@H]([C@H](C)CCCC(C)C)[C@@]4(C)CC[C@@H]32)C1)C(N)=O)[C@@H](C)CC` [LP-121] (Ac-EMTWEEWEKKIEELEKKIEELLKKAEEQQKKNEAAAKK(Succinyl(4-O-cholesteryl))-NH2), the IC50 in data set [2] came out at 42.4 pM; in data set [4], 52 pM; in data set [5], 9.88 pM. Moreover, in data set [3], the “α-helix content, lipopeptide alone” value was determined as 69%. The “Tm value of the mixture with N44” value at N44 is more than 98 °C. In addition, at N44, the “α-helix content of the mixture with N44” value stood at 81%.

Turning to `CC[C@H](C)[C@H](NC(=O)[C@H](CCCCN)NC(=O)[C@H](CCCCN)NC(=O)[C@H](CCC(=O)O)NC(=O)[C@H](Cc1c[nH]c2ccccc12)NC(=O)[C@H](CCC(=O)O)NC(=O)[C@H](CCC(=O)O)NC(=O)[C@H](Cc1c[nH]c2ccccc12)NC(=O)[C@@H](NC(C)=O)[C@@H](C)O)C(=O)N[C@@H](CCC(=O)O)C(=O)N[C@@H](CCC(=O)O)C(=O)N[C@@H](CC(C)C)C(=O)N[C@@H](CCC(=O)O)C(=O)N[C@@H](CCCCN)C(=O)N[C@@H](CCCCN)C(=O)N[C@H](C(=O)N[C@@H](CCC(=O)O)C(=O)N[C@@H](CCC(=O)O)C(=O)N[C@@H](CC(C)C)C(=O)N[C@@H](CC(C)C)C(=O)N[C@@H](CCCCN)C(=O)N[C@@H](CCCCN)C(=O)N[C@@H](C)C(=O)N[C@@H](CCC(=O)O)C(=O)N[C@@H](CCC(=O)O)C(=O)N[C@@H](CCC(N)=O)C(=O)N[C@@H](CCC(N)=O)C(=O)N[C@@H](CCCCN)C(=O)N[C@@H](CCCCN)C(=O)N[C@@H](CC(N)=O)C(=O)N[C@@H](CCC(=O)O)C(=O)N[C@@H](CCC(N)=O)C(=O)N[C@@H](CCC(=O)O)C(=O)N[C@@H](C)C(=O)N[C@@H](C)C(=O)N[C@@H](C)C(=O)N[C@@H](CCCCN)C(=O)N[C@@H](CCCCNC(=O)CCC(=O)O[C@H]1CC[C@@]2(C)C(=CC[C@H]3[C@@H]4CC[C@H]([C@H](C)CCCC(C)C)[C@@]4(C)CC[C@@H]32)C1)C(N)=O)[C@@H](C)CC` [LP-122] (Ac-TWEEWEKKIEELEKKIEELLKKAEEQQKKNEQEAAAKK(Succinyl(4-O-cholesteryl))-NH2), the IC50 came to 41.5 pM in data set [2], 22.5 pM in data set [4] and 9.05 pM in data set [5]. Moreover, in data set [3], the “α-helix content, lipopeptide alone” value turned out to be 65%. For the same molecule, the “Tm value of the mixture with N44” value at N44 was more than 98 °C. Further, the “α-helix content of the mixture with N44” value at N44 amounted to 81%.

As to `CC[C@H](C)[C@H](NC(=O)[C@H](CCCCN)NC(=O)[C@H](CCCCN)NC(=O)[C@H](CCC(=O)O)NC(=O)[C@H](Cc1ccc(O)cc1)NC(=O)[C@H](CCC(=O)O)NC(=O)[C@H](CCC(=O)O)NC(=O)[C@H](Cc1ccc(O)cc1)NC(=O)[C@@H](NC(C)=O)[C@@H](C)O)C(=O)N[C@@H](CCC(=O)O)C(=O)N[C@@H](CCC(=O)O)C(=O)N[C@@H](CC(C)C)C(=O)N[C@@H](CCC(=O)O)C(=O)N[C@@H](CCCCN)C(=O)N[C@@H](CCCCN)C(=O)N[C@H](C(=O)N[C@@H](CCC(=O)O)C(=O)N[C@@H](CCC(=O)O)C(=O)N[C@@H](CC(C)C)C(=O)N[C@@H](CC(C)C)C(=O)N[C@@H](CCCCN)C(=O)N[C@@H](CCCCN)C(=O)N[C@@H](C)C(=O)N[C@@H](CCC(=O)O)C(=O)N[C@@H](CCC(=O)O)C(=O)N[C@@H](CCC(N)=O)C(=O)N[C@@H](CCC(N)=O)C(=O)N[C@@H](CCCCN)C(=O)N[C@@H](CCCCN)C(=O)N[C@@H](CC(N)=O)C(=O)N[C@@H](CCC(=O)O)C(=O)N[C@@H](CCC(N)=O)C(=O)N[C@@H](CCC(=O)O)C(=O)N[C@@H](C)C(=O)N[C@@H](C)C(=O)N[C@@H](C)C(=O)N[C@@H](CCCCN)C(=O)N[C@@H](CCCCNC(=O)CCC(=O)O[C@H]1CC[C@@]2(C)C(=CC[C@H]3[C@@H]4CC[C@H]([C@H](C)CCCC(C)C)[C@@]4(C)CC[C@@H]32)C1)C(N)=O)[C@@H](C)CC` [LP-124] (Ac-TYEEYEKKIEELEKKIEELLKKAEEQQKKNEQEAAAKK(Succinyl(4-O-cholesteryl))-NH2), the “activity increased as compared to its template, JRFL pseudovirus” value in data set [2] (setting [6]) is on record as approximately 7 folds. Also, the concentration for half-maximal inhibition (IC50) in data set [2] amounted to 5.93 pM; in data set [4], 2.07 pM; in data set [5], 1.06 pM. For the same molecule, the “α-helix content, lipopeptide alone” value in data set [3] was 64%. The “activity increased as compared to its template, NL4-3 pseudovirus” value in data set [4] (setting [6]) was “about 11 folds”. The “Tm value of the mixture with N44” value at N44 was 86 °C. The “α-helix content of the mixture with N44” value at N44 is given as 79%. Moreover, in data set [5] (setting [6]), the “activity increased as compared to its template, SG3.1 living virus” value was approximately 9 folds.

`CC[C@H](C)[C@H](NC(=O)[C@H](CCCCN)NC(=O)[C@H](CCCCN)NC(=O)[C@H](CCC(=O)O)NC(=O)[C@H](Cc1ccc(O)cc1)NC(=O)[C@H](CCC(=O)O)NC(=O)[C@H](CCC(=O)O)NC(=O)[C@H](Cc1ccc(O)cc1)NC(=O)[C@H](CCC(=O)O)NC(C)=O)C(=O)N[C@@H](CCC(=O)O)C(=O)N[C@@H](CCC(=O)O)C(=O)N[C@@H](CC(C)C)C(=O)N[C@@H](CCC(=O)O)C(=O)N[C@@H](CCCCN)C(=O)N[C@@H](CCCCN)C(=O)N[C@H](C(=O)N[C@@H](CCC(=O)O)C(=O)N[C@@H](CCC(=O)O)C(=O)N[C@@H](CC(C)C)C(=O)N[C@@H](CC(C)C)C(=O)N[C@@H](CCCCN)C(=O)N[C@@H](CCCCN)C(=O)N[C@@H](C)C(=O)N[C@@H](CCC(=O)O)C(=O)N[C@@H](CCC(=O)O)C(=O)N[C@@H](CCC(N)=O)C(=O)N[C@@H](CCC(N)=O)C(=O)N[C@@H](CCCCN)C(=O)N[C@@H](CCCCN)C(=O)N[C@@H](CC(N)=O)C(=O)N[C@@H](CCC(=O)O)C(=O)N[C@@H](C)C(=O)N[C@@H](C)C(=O)N[C@@H](C)C(=O)N[C@@H](CCCCN)C(=O)N[C@@H](CCCCNC(=O)CCC(=O)O[C@H]1CC[C@@]2(C)C(=CC[C@H]3[C@@H]4CC[C@H]([C@H](C)CCCC(C)C)[C@@]4(C)CC[C@@H]32)C1)C(N)=O)[C@@H](C)CC` [LP-126] (Ac-EYEEYEKKIEELEKKIEELLKKAEEQQKKNEAAAKK(Succinyl(4-O-cholesteryl))-NH2): the 50% inhibitory concentration (IC50) was found to be 6.08 pM in data set [2], 3.85 pM in data set [4] and 1.65 pM in data set [5]. For the same molecule, the “α-helix content, lipopeptide alone” value in data set [3] turned out to be 51%. Also, at N44, the “Tm value of the mixture with N44” value came to 92 °C. For the same molecule, the “α-helix content of the mixture with N44” value at N44 is listed as 66%.
